What was measured:
red blood cells (RBC) [1] = assay: RBC storage in AS-3 with Ado and/or S1P, LC-MS metabolomics of cells and supernatants; type: cell-based; details: for amount of hypoxanthine in RBC and supernatants / 2,3-DPG levels / ATP production / oxidized glutathione levels / reduced glutathione levels: RBC-AS-3 stored at 4° C.; for amount of hypoxanthine in RBC and supernatants: at least up to a concentration less than 100 μM, at which point Ado becomes a substrate for hypoxanthine production, FIG. 5; for 2,3-DPG levels: first two weeks of storage, FIG. 2; for ATP production: first week of storage, FIG. 3; for oxidized glutathione levels / reduced glutathione levels: supplemented conditions, FIG. 4; for glycolytic activity as measured by the lactate-to-glucose ratio: RBC-AS-3 suspension stored at 4° C., Ado 0.1-100 μM or S1P 1-10 μM or both, versus unsupplemented storage, FIG. 1
Method: RBC Storage: To ensure sterility, all storage conditions were set up and subsequently sampled in a biosafety cabinet. The RBC-AS-3 suspension was carefully removed from the bag into 3 ml aliquots inside 15 ml conical tubes. Stock concentrations (formulated in house-made AS-3) of ^13C5-Ado or d7-S1P were diluted to final concentrations of 0.1, 1, 10, and 100 μM for Ado or 1, 5, and 10 μM for S1P. Also included was a storage condition consisting of 10 Ado+5 μM S1P. […] The tubes were gently mixed and placed at 4° C. for storage. On days 2, 8, 11, 15, 22, 29, and 43, the tubes were placed back in a biosafety cabinet and 300 μl were sampled. The tubes were placed back at 4° C., and the samples were centrifuged for 10 minutes at 1500 g, 4° C. Supernatants were separated from cells and frozen until analysis (1st analysis after day 22 sampling). LC-MS Metabolomics: Metabolomics analyses were performed as previously described (Nemkov et al. (2015) Amino Acids doi:10.1007/s00726-015-2019-9; Nemkov et al. (2017) Rapid Commun. Mass Spectrom. 31, 663-673). Briefly, samples were placed on ice and diluted with 9 volumes of methanol:acetonitrile:water (5:3:2, v:v) for RBC, or with 24 volumes of methanol:acetonitrile:water (5:3:2, v:v) for supernatants. Suspensions were vortexed continuously for 30 min at 4° C. Insoluble material was removed by centrifugation at 18,000 g for 10 min at 4° C. and supernatants were isolated for metabolomics analysis by UHPLC-MS. The analytical platform employed a Vanquish UHPLC system (Thermo Fisher Scientific, San Jose, Calif., USA) coupled online to a Q Exactive mass spectrometer (Thermo Fisher Scientific, San Jose, Calif., USA). Samples were resolved over a Kinetex C18 column, 2.1×150 mm, 1.7 μm particle size (Phenomenex, Torrance, Calif., USA) equipped with a guard column (SecurityGuard™ Ultracartridge—UHPLC C18 for 2.1 mm ID Columns—AJO-8782—Phenomenex, Torrance, Calif., USA) using an aqueous phase (A) of water and 0.1% formic acid and a mobile phase (B) of acetonitrile and 0.1% formic acid for positive ion polarity mode, or an aqueous phase (A) of 5% acetonitrile and 1 mM ammonium acetate in water and a mobile phase (B) of 95% acetonitrile and 1 mM ammonium acetate in water for negative ion polarity mode. Samples were eluted from the column using a gradient from 5% to 95% B over 1.6 minutes, followed by an isocratic hold at 95% B for 1.65 minutes, flowed at 450 μl/min and 40° C. The Q Exactive mass spectrometer (Thermo Fisher Scientific, San Jose, Calif., USA) was operated independently in positive or negative ion mode, scanning in Full MS mode (2 μscans) from 60 to 900 m/z at 70,000 resolution, with 4 kV spray voltage, 15 shealth gas, 5 auxiliary gas. Calibration was performed prior to analysis using the Pierce™ Positive and Negative Ion Calibration Solutions (Thermo Fisher Scientific). Acquired data was then converted from .raw to .mzXML file format using Mass Matrix (Cleveland, Ohio, USA). Samples were analyzed in randomized order with a technical mixture injected after every 15 samples to qualify instrument performance. Metabolite assignments, isotopologue distributions, and correction for expected natural abundances of deuterium, ^13C, and ^15N isotopes were performed using MAVEN (Princeton, N.J., USA). The Q Exactive mass spectrometer (Thermo Fisher Scientific, San Jose, Calif., USA) was operated independently in positive or negative ion mode, scanning in Full MS mode (2 μscans) from 60 to 900 m/z at 70,000 resolution, with 4 kV spray voltage, 15 shealth gas, 5 auxiliary gas. Calibration was performed prior to analysis using the Pierce™ Positive and Negative Ion Calibration Solutions (Thermo Fisher Scientific). Acquired data was then converted from .raw to .mzXML file format using Mass Matrix (Cleveland, Ohio, USA). […] Importantly, the use of a standard processed blood unit is an improvement over previous experiments as this material directly represents a realistic storage strategy.

red blood cells (RBC) [2] = assay: Storage hemolysis: phosphate-conjugated carbohydrates and adenylates in the supernatant fraction of stored RBCs; type: cell-based; details: RBC-AS-3 stored at 4° C.; over storage duration; FIG. 6
Method: RBC Storage: To ensure sterility, all storage conditions were set up and subsequently sampled in a biosafety cabinet. The RBC-AS-3 suspension was carefully removed from the bag into 3 ml aliquots inside 15 ml conical tubes. Stock concentrations (formulated in house-made AS-3) of ^13C5-Ado or d7-S1P were diluted to final concentrations of 0.1, 1, 10, and 100 μM for Ado or 1, 5, and 10 μM for S1P. Also included was a storage condition consisting of 10 Ado+5 μM S1P. […] The tubes were gently mixed and placed at 4° C. for storage. On days 2, 8, 11, 15, 22, 29, and 43, the tubes were placed back in a biosafety cabinet and 300 μl were sampled. The tubes were placed back at 4° C., and the samples were centrifuged for 10 minutes at 1500 g, 4° C. Supernatants were separated from cells and frozen until analysis (1st analysis after day 22 sampling). LC-MS Metabolomics: Metabolomics analyses were performed as previously described (Nemkov et al. (2015) Amino Acids doi:10.1007/s00726-015-2019-9; Nemkov et al. (2017) Rapid Commun. Mass Spectrom. 31, 663-673). Briefly, samples were placed on ice and diluted with 9 volumes of methanol:acetonitrile:water (5:3:2, v:v) for RBC, or with 24 volumes of methanol:acetonitrile:water (5:3:2, v:v) for supernatants. […] Samples were analyzed in randomized order with a technical mixture injected after every 15 samples to qualify instrument performance. […]

SMILES	amount of hypoxanthine in RBC and supernatants (red blood cells (RBC) [1])	2,3-DPG levels (red blood cells (RBC) [1])	ATP production (red blood cells (RBC) [1])	oxidized glutathione levels (red blood cells (RBC) [1])	reduced glutathione levels (red blood cells (RBC) [1])	glycolytic activity as measured by the lactate-to-glucose ratio (red blood cells (RBC) [1])	levels of phosphate-conjugated carbohydrates and adenylates in supernatants (indicative of hemolysis) (red blood cells (RBC) [2])
CCCCCCCCCCCCC/C=C/[C@@H](O)[C@@H](N)COP(=O)(O)O [S1P, sphingosine 1-phosphate]	markedly decreased	higher 2,3-DPG levels through the first two weeks of storage	improved ATP production through the first week of storage	lower	increased	higher glycolytic activity	significantly lower
Nc1ncnc2c1ncn2[C@@H]1O[C@H](CO)[C@@H](O)[C@H]1O [Ado, adenosine]	markedly decreased	higher 2,3-DPG levels through the first two weeks of storage	improved ATP production through the first week of storage	lower	increased	higher glycolytic activity	significantly lower

— US20210219542A1, “COMPOSITIONS AND METHODS FOR STORAGE OF RED BLOOD CELLS” (THE REGENTS OF THE UNIVERSITY OF COLORADO, A BODY CORPORATE, priority 2018, published 2021)
